We go through 2 compounds from patent US20110294782A1, “SMALL MOLECULE PAK INHIBITORS” (Massachusetts Institute of Technology, priority 2006, published 2011).

Structures are written as SMILES. Like-named read-outs stand apart in the source and are kept apart here.

Experiment [1] has as its target T1, PAK1 (Homo sapiens, UniProt Q13153).
T1 construct: full length PAK or a PAK catalytic domain expressed on the surface of T7 bacteriophage; host or cells: T7 phage (modified T7 Select 10-3) grown in a BL21-derived E. coli host
As to the kind of experiment: Competitive binding assay (Ambit), phage-displayed PAK vs immobilized staurosporine bait. An excerpt:
(§1) Binding data were fit to the equation:
(§2) PFU=L+((H−L)*(Kd(test)/(Kd(test)+[candidate])))

Experiment [2] deals with T2, PAK2 (Homo sapiens, UniProt Q13177).
T2 construct: full length PAK or a PAK catalytic domain expressed on the surface of T7 bacteriophage; host or cells: T7 phage (modified T7 Select 10-3) grown in a BL21-derived E. coli host
The experiment is described as above.
Description: as §1, §2

Experiment [3] concerns the target T3, PAK7 (Homo sapiens, UniProt Q9P286).
T3 construct: full length PAK or a PAK catalytic domain expressed on the surface of T7 bacteriophage; host or cells: T7 phage (modified T7 Select 10-3) grown in a BL21-derived E. coli host
Described as above. The conditions noted are these: 25° C., 1 hour, 0.1% DMSO, read-out: Kd value, Test PAK Inhibitor Affinity Assay.
Description: as §1, §2

The target of experiment [4] is T4, PAK6 (Homo sapiens, UniProt Q9NQU5).
T4 construct: full length PAK or a PAK catalytic domain expressed on the surface of T7 bacteriophage; host or cells: T7 phage (modified T7 Select 10-3) grown in a BL21-derived E. coli host
The experiment is described as above. The conditions noted are these: 25° C., 1 hour, 0.1% DMSO, read-out: Kd value, Test PAK Inhibitor Affinity Assay.
Description: as §1, §2

The target in experiment [5] is PAK4 (Homo sapiens, UniProt O96013). As to the kind of experiment: biochemical.
Sequence of PAK4 (O96013 whole entry): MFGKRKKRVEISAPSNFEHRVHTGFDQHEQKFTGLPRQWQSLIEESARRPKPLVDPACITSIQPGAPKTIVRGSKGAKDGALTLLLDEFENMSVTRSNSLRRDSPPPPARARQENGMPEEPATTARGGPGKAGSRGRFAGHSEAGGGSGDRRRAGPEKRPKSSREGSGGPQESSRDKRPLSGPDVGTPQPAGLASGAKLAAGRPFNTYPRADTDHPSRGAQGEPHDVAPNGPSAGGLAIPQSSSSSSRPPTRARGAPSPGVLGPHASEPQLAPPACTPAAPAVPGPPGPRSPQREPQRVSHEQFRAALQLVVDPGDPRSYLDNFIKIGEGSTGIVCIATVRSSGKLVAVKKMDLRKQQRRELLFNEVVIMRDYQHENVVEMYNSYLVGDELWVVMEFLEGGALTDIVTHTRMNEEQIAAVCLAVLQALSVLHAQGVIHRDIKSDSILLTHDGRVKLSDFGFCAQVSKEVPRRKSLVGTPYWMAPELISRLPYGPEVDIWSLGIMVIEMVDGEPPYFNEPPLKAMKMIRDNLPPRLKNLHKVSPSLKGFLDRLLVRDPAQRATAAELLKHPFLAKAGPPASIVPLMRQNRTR
Description: When these three components are combined, the test substance is tested for its ability to compete, in a concentration-dependent manner, with the immobilized kinase bait probe for binding for binding to the phage-PAK catalytic domain. Afterwards, the amount of bait probe-bound phage-PAK can be detected, for example, by a phage plaque assay and/or quantitative PCR of phage DNA. The amount of probe-bound phage-PAK is inversely proportional to the affinity of the candidate inhibitor for the kinase and can be used in determining a Kd value of the test substance for the PAK catalytic site, as described below. […]
T7 kinase-tagged phage strains were grown in parallel in 24- or 96-well blocks in an E. coli host derived from the BL21 strain. […] Phage titer in the eluates was measured by standard plaque assays or by quantitative PCR. […]
Kd (probe) is the binding constant for the interaction between the kinase and the immobilized ligand, [Probe] is the concentration of the immobilized ligand [test] ½ is the concentration of the free candidate compound at the midpoint of the transition. […] Under these conditions, binding constants measured for the interaction between kinases and candidate compounds (Kd (test)) are therefore independent of the affinity of the immobilized ligand for the kinase (Kd (probe)). […]

T4 sequence (Q9NQU5 whole entry, the tested form may be a part): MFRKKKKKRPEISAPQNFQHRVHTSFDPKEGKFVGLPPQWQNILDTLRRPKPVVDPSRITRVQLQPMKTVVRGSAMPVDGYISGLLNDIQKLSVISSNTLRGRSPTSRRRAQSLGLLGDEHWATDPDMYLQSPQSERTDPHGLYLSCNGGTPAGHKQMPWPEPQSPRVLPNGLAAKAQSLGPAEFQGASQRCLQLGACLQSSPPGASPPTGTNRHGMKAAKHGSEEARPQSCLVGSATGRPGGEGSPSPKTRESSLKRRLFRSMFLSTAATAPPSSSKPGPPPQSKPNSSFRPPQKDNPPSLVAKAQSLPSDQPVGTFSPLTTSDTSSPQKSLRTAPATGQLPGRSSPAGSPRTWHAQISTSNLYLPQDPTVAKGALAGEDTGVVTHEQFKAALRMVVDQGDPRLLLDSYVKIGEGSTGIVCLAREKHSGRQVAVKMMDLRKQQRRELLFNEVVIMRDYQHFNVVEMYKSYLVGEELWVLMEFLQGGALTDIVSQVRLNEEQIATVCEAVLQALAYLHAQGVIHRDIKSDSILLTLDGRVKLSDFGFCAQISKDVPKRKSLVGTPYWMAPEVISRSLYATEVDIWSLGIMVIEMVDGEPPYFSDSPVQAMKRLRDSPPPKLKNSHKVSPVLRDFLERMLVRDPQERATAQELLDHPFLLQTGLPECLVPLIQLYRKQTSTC
T1 sequence (Q13153 whole entry, the tested form may be a part): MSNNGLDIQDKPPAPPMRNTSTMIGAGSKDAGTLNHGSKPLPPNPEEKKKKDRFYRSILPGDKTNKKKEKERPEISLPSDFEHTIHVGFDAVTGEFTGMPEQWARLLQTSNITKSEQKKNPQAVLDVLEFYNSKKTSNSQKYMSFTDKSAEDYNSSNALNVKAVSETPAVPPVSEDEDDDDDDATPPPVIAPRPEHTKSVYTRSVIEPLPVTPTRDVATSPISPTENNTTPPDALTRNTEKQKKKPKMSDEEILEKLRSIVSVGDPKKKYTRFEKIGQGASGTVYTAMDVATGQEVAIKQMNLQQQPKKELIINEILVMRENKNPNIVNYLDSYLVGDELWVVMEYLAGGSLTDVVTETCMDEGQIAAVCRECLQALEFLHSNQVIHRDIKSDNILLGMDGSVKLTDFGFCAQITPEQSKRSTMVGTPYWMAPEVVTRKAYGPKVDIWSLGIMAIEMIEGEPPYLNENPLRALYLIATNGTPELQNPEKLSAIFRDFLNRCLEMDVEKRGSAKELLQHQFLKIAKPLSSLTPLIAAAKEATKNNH
T2 sequence (Q13177 whole entry, the tested form may be a part): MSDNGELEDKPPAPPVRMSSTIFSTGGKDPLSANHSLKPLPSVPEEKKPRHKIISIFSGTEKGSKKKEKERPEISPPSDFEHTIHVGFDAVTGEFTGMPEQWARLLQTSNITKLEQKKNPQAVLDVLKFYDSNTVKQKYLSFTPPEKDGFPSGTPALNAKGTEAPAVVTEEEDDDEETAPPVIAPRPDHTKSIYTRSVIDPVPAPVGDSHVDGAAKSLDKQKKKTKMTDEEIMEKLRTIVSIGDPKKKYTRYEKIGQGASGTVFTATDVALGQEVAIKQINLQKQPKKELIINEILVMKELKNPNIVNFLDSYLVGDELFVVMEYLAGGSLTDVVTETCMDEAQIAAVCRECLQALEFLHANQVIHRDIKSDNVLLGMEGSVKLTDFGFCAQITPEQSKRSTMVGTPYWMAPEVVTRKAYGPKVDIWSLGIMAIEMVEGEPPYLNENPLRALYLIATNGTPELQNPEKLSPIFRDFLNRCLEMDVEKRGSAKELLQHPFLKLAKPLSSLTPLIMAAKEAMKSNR
T3 sequence (Q9P286 whole entry, the tested form may be a part): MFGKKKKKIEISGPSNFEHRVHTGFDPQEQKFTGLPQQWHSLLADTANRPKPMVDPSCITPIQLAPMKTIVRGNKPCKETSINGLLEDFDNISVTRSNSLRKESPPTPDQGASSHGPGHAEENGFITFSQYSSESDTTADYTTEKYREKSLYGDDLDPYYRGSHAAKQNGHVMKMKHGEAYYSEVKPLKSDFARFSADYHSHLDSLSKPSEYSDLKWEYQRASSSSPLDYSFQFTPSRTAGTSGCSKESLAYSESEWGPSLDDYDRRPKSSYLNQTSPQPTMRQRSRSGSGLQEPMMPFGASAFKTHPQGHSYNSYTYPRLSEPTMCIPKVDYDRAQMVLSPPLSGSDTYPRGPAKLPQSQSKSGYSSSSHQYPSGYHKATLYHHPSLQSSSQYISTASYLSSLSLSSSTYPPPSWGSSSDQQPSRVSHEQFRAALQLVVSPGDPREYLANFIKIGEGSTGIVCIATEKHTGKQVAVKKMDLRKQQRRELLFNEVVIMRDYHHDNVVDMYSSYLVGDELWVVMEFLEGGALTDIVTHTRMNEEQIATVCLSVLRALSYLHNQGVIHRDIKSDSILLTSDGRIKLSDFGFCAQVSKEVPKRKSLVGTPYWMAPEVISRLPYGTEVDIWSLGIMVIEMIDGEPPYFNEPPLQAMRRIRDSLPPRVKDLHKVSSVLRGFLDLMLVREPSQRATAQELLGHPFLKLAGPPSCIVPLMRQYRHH

The Kd is a measure of binding affinity in units of concentration. Regarding `CCOc1cc2ncc(C#N)c(Nc3ccc(F)c(Cl)c3)c2cc1NC(=O)/C=C/CN(C)C` [EKB-569], the Kd in experiment [1] (PAK1, 25° C., 1 hour, 0.1% DMSO, read-out: Kd value, Test PAK Inhibitor Affinity Assay) is less than 5 µM; in experiment [2] (PAK2, 25° C., 1 hour, 0.1% DMSO, read-out: Kd value, Test PAK Inhibitor Affinity Assay), no less than 10 µM; in experiment [3], no less than 10 µM; in experiment [4] it was no less than 10 µM; in experiment [5], no less than 10 µM.
Consider `Nc1nc(Nc2ccc(S(N)(=O)=O)cc2)nn1C(=O)c1c(F)cccc1F` [JNJ-7706621], for which the results for the Kd in experiment [1], in experiment [2] and in experiment [4] were no less than 10 µM, no less than 10 µM and less than 5 µM, respectively.
